System: SEM cells
Assay: cell viability relative to DMSO control; higher = less cytotoxic
Settings: 48 h
Method in brief: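 Cells were incubated for 48 h at 37°C before CellTiter-Glo One luminescence was read. The cells were NOMO1 or SEM (500 cells/well) or P12-Ichikawa (1000 cells/well) leukemia cells, adapted for at least four passages in each medium and seeded in 1536-well plates (5 μl). Dosing used library compounds in DMSO applied by pin over 11 threefold points, 47 μM to 0.79 nM. Viability is the per-plate percentage of DMSO wells, with cell-free wells as background.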

[1] = HPLM + 10% dialyzed FBS, 0.000781 µM
[2] = HPLM + 10% dialyzed FBS, 0.00234 µM
[3] = HPLM + 10% dialyzed FBS, 0.00702 µM
[4] = HPLM + 10% dialyzed FBS, 0.0211 µM
[5] = HPLM + 10% dialyzed FBS, 0.0632 µM
[6] = HPLM + 10% dialyzed FBS, 0.19 µM
[7] = HPLM + 10% dialyzed FBS, 0.569 µM
[8] = HPLM + 10% dialyzed FBS, 1.71 µM
[9] = HPLM + 10% dialyzed FBS, 5.12 µM
[10] = HPLM + 10% dialyzed FBS, 15.4 µM
[11] = HPLM + 10% dialyzed FBS, 46.1 µM
[12] = RPMI 5 mM glucose + 10% FBS, 0.000781 µM
[13] = RPMI 5 mM glucose + 10% FBS, 0.00234 µM
[14] = RPMI 5 mM glucose + 10% FBS, 0.00702 µM
[15] = RPMI 5 mM glucose + 10% FBS, 0.0211 µM
[16] = RPMI 5 mM glucose + 10% FBS, 0.0632 µM
[17] = RPMI 5 mM glucose + 10% FBS, 0.19 µM
[18] = RPMI 5 mM glucose + 10% FBS, 0.569 µM
[19] = RPMI 5 mM glucose + 10% FBS, 1.71 µM
[20] = RPMI 5 mM glucose + 10% FBS, 5.12 µM
[21] = RPMI 5 mM glucose + 10% FBS, 15.4 µM
[22] = RPMI 5 mM glucose + 10% FBS, 46.1 µM
[23] = RPMI 5 mM glucose + 10% dialyzed FBS, 0.000781 µM
[24] = RPMI 5 mM glucose + 10% dialyzed FBS, 0.00234 µM
[25] = RPMI 5 mM glucose + 10% dialyzed FBS, 0.00702 µM
[26] = RPMI 5 mM glucose + 10% dialyzed FBS, 0.0211 µM
[27] = RPMI 5 mM glucose + 10% dialyzed FBS, 0.0632 µM
[28] = RPMI 5 mM glucose + 10% dialyzed FBS, 0.19 µM
[29] = RPMI 5 mM glucose + 10% dialyzed FBS, 0.569 µM
[30] = RPMI 5 mM glucose + 10% dialyzed FBS, 1.71 µM
[31] = RPMI 5 mM glucose + 10% dialyzed FBS, 5.12 µM
[32] = RPMI 5 mM glucose + 10% dialyzed FBS, 15.4 µM
[33] = RPMI 5 mM glucose + 10% dialyzed FBS, 46.1 µM

Row | SMILES | cell viability [1] [%] | cell viability [2] [%] | cell viability [3] [%] | cell viability [4] [%] | cell viability [5] [%] | cell viability [6] [%] | cell viability [7] [%] | cell viability [8] [%] | cell viability [9] [%] | cell viability [10] [%] | cell viability [11] [%] | cell viability [12] [%] | cell viability [13] [%] | cell viability [14] [%] | cell viability [15] [%] | cell viability [16] [%] | cell viability [17] [%] | cell viability [18] [%] | cell viability [19] [%] | cell viability [20] [%] | cell viability [21] [%] | cell viability [22] [%] | cell viability [23] [%] | cell viability [24] [%] | cell viability [25] [%] | cell viability [26] [%] | cell viability [27] [%] | cell viability [28] [%] | cell viability [29] [%] | cell viability [30] [%] | cell viability [31] [%] | cell viability [32] [%] | cell viability [33] [%]
1 | COC(=O)Nc1nc2cc(C(=O)c3cccs3)ccc2[nH]1 | 102 | 71.5 | 94.1 | 48.1 | 28.1 | 30.4 | 24.9 | 28 | 25.8 | 28.9 | 19.8 | 95.6 | 46.7 | 88 | 37 | 15.3 | 15.1 | 17.5 | 14.8 | 13.9 | 14.3 | 14.2 | 111 | 69 | 94.4 | 51.8 | 24.7 | 25.5 | 22.3 | 27.2 | 26 | 26.6 | 22.2
2 | CC(C)n1nc(-c2cc3cc(O)ccc3[nH]2)c2c(N)ncnc21 | 93.3 | 104 | 111 | 94.3 | 81 | 84.4 | 45.2 | 52.9 | 25.9 | 16.7 | 6.97 | 106 | 107 | 114 | 136 | 108 | 85.4 | 66.3 | 66 | 38 | 23.6 | 8.3 | 90.8 | 99.4 | 92.4 | 87.7 | 94.8 | 87.6 | 48.7 | 52.4 | 35.4 | 20.9 | 6.33

From the supplement of paper PMC11451515
